One assay relates to PC3 cells. Nature of the assay: EB1 Comet (microtubule disruption) assay. The format is cell-based, human. To be noted: Homo sapiens, PC-3, 1 h, 1 hour treatment, read-out: EB1 pLAC (converted). In a few lines:
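Readout is loss of Eb1 plus-end foci, scored by immunofluorescence microscopy, in PC3 cells after 1 h compound treatment at 37 °C with 0.6% final DMSO. LAC is defined as the lowest concentration leaving at least 50% of cells without Eb1 foci.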

The target in a further assay is T1, TANK-2 enzyme (Homo sapiens, UniProt Q9H2K2).
T1 construct: made in house
T1 sequence (Q9H2K2 1-1166): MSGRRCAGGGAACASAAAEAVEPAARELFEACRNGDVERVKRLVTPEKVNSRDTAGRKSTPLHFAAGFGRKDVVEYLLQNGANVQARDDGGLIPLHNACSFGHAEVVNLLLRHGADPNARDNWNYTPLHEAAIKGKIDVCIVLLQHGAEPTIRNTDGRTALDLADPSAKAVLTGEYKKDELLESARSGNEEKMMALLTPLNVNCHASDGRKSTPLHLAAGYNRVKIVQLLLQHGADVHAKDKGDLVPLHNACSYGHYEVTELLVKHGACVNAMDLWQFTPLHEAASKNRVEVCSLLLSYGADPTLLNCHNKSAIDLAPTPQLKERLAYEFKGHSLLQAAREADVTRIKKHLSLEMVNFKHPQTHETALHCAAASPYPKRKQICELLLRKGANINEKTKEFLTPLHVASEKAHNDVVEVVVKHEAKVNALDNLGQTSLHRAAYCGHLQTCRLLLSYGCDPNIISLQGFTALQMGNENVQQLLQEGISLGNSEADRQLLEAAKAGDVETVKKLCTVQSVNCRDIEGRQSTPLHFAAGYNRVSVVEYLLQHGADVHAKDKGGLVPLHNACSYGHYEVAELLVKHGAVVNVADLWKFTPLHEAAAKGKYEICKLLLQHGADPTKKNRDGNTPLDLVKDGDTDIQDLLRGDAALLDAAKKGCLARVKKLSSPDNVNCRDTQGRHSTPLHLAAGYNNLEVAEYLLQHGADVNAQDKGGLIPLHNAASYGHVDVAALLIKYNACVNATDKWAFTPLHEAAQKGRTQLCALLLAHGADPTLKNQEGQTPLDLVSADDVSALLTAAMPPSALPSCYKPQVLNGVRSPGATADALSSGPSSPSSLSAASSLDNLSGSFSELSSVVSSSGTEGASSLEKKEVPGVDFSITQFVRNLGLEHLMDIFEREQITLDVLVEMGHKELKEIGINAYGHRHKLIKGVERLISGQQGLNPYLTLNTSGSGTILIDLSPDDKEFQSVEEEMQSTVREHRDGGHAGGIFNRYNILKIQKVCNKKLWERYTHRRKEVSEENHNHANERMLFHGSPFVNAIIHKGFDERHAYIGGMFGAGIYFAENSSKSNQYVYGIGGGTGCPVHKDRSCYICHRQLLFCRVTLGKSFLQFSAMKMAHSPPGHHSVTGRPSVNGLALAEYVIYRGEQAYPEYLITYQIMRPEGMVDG
Nature of the assay: In vitro Scintillation Proximity Assay (SPA) for TANK-2 inhibitory activity. As to conditions: read-out: in vitro SPA assay TANK-2 pIC50 (converted). Format: biochemical. In a few lines:
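Results are pIC50 values, with IC50 interpolated linearly around 50% of blank-subtracted control cpm. They come from a scintillation proximity read of TANK-2 (8 μg/ml) self-modification with [3H]-NAD+/NAD, incubated 120 min at room temperature in pH 7.4 Tris buffer containing MgCl2 and DTT. Compounds were first screened at 10^−5 M.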
On the technique in general: Scintillation proximity formats need no separation of bound from free tracer.

As for `CCc1cc2c(OC)cc(C(C)(C#N)Cc3nc(OC)cc(OC)n3)cc2[nH]c1=O` (stereo not shown) [Compound 229], the minimal effective concentration in the assay with PC3 cells was 3.16 µM. For the same molecule, on TANK-2 enzyme, the IC50 is 10 nM.
The matching figures for `CCc1cc2ccc(C(C)(C#N)CN3CCN(c4ccccn4)CC3)cc2[nH]c1=O` (stereo not shown) [Compound 233]: 1 µM and 158 nM.
As for `CCc1cc2ccc(C(C)(C#N)Cc3cccc4c3CCN4)cc2[nH]c1=O` (stereo not shown) [Compound 237], the minimal effective concentration in the assay on PC3 cells is 3.16 µM. Also, the IC50 on TANK-2 enzyme was 126 nM.
As to `Cc1cc2ccc(C(C)(C#N)Cc3cccc(I)c3)cc2[nH]c1=O` (stereo not shown) [Compound 256], in the assay with PC3 cells, the minimal effective concentration was 0.316 µM. Besides, the IC50 at TANK-2 enzyme was 1260 nM.
For `CCc1cc2ccc(C(C)(C#N)Cc3cccc(NC)c3)cc2[nH]c1=O` (stereo not shown) [Compound 257], the minimal effective concentration with PC3 cells is 0.316 µM. Further, at TANK-2 enzyme, the IC50 is 251 nM.
The matching figures for `Cc1cc2ccc(C(C)(C#N)Cc3cccc(OCC4CCOCC4)c3)cc2[nH]c1=O` (stereo not shown) [Compound 261]: 1.78 µM and 2510 nM.
Regarding `CCc1cc2ccc(C(C)(C#N)Cc3cc(F)ccc3F)cc2[nH]c1=O` (stereo not shown) [Compound 280], in the assay with PC3 cells, the minimal effective concentration was 1 µM. Further, the IC50 on TANK-2 enzyme is 126 nM.
With `CCc1cc2ccc(C(C)(C#N)Cc3ccc(F)c(F)c3)cc2[nH]c1=O` (stereo not shown) [Compound 281], the minimal effective concentration with PC3 cells was 0.316 µM. In addition, the IC50 on TANK-2 enzyme is 158 nM.
Take `CCc1cc2ccc(C(C)(C#N)Cc3cc(C(F)(F)F)ccc3F)cc2[nH]c1=O` (stereo not shown) [Compound 283]: in the assay with PC3 cells, the minimal effective concentration is 1 µM. Besides, the IC50 on TANK-2 enzyme is 398 nM.
For `CCOc1cccc(CC(C)(C#N)c2ccc3cc(CC)c(=O)[nH]c3c2)c1` (stereo not shown) [Compound 285], the minimal effective concentration with PC3 cells was 0.316 µM. In addition, the IC50 on TANK-2 enzyme is 251 nM.
As to `CCc1cc2ccc(C(C)(C#N)Cc3cccc(OC)c3F)cc2[nH]c1=O` (stereo not shown) [Compound 286], the minimal effective concentration with PC3 cells was 0.562 µM. For the same molecule, the IC50 on TANK-2 enzyme was 200 nM.
For the molecule `CCc1cc2ccc(C(C)(C#N)Cc3cc(OC)c(OC)c(OC)c3)cc2[nH]c1=O` (stereo not shown) [Compound 289], the minimal effective concentration with PC3 cells is 0.0316 µM. Further, the IC50 on TANK-2 enzyme is 251 nM.
`CCc1cc2ccc(C(C)(C#N)Cc3cccc(/C=N/O)c3)cc2[nH]c1=O` (stereo not shown) [Compound 299]: in the assay on PC3 cells, the minimal effective concentration is 1 µM. Besides, at TANK-2 enzyme, the IC50 was 158 nM.
For `CCc1cc2ccc(C(C)(C#N)CN(C)Cc3ccc(C#N)cc3)cc2[nH]c1=O` (stereo not shown) [Compound 300], in that order: 0.1 µM and 398 nM.
Consider `CCc1cc2ccc(C(C)(C#N)CNCc3ccc(C#N)cc3)cc2[nH]c1=O` (stereo not shown) [Compound 302], for which the minimal effective concentration in the assay with PC3 cells was 1 µM. Moreover, the IC50 at TANK-2 enzyme was 100 nM.
Turning to `Cc1cc2ccc(C(C)(C#N)Cc3cccc(Oc4ccccc4)c3)cc2[nH]c1=O` (stereo not shown) [Compound 305], in the assay on PC3 cells, the minimal effective concentration was 3.16 µM. Moreover, the IC50 at TANK-2 enzyme is 1580 nM.
In the case of `CCc1cc2ccc(C(C)(C#N)Cc3nc(C#N)cc(OC)n3)cc2[nH]c1=O` (stereo not shown) [Compound 313], the minimal effective concentration in the assay with PC3 cells was 0.0316 µM. Moreover, the IC50 on TANK-2 enzyme was 100 nM.
On to `CCc1cc2ccc(C(C)(C#N)Cc3cc(C#N)nc(OC)c3)cc2[nH]c1=O` (stereo not shown) [Compound 314], for which the minimal effective concentration in the assay with PC3 cells was 1 µM. Further, the IC50 on TANK-2 enzyme was 25.1 nM.
For `CCc1cc2ccc(C(C)(C#N)Cc3cc(N(C)C)nc(C#N)n3)cc2[nH]c1=O` (stereo not shown) [Compound 317], in that order: 1 µM and 100 nM.
As for `CCc1cc2ccc(C(C)(C#N)Cc3nc(C#N)cc(N(C)C)n3)cc2[nH]c1=O` (stereo not shown) [Compound 318], in the assay on PC3 cells, the minimal effective concentration was 0.316 µM. In addition, at TANK-2 enzyme, the IC50 is 126 nM.
For `CCc1cc2ccc(C(C)(C#N)Cc3cc(C#N)nc(C)n3)cc2[nH]c1=O` (stereo not shown) [Compound 319], in that order: 1 µM and 63.1 nM.
`CCc1cc2ccc(C(C)(C#N)Cc3cc(N(C)C)nc(N(C)C)n3)cc2[nH]c1=O` (stereo not shown) [Compound 320]: the minimal effective concentration with PC3 cells is 0.316 µM. The IC50 on TANK-2 enzyme was 200 nM.
For `CCc1cc2ccc(C(C)(C#N)Cc3cc(N(C)C)nc(C)n3)cc2[nH]c1=O` (stereo not shown) [Compound 322], in that order: 1 µM and 251 nM.
For `CCc1cc2ccc(C(C)(C#N)Cc3cc(C#N)nc(N(C)C)c3)cc2[nH]c1=O` (stereo not shown) [Compound 325], in that order: 3.16 µM and 63.1 nM.
As to `CCc1cc2ccc(C(C)(C#N)Cc3c4ccccc4nn3C)cc2[nH]c1=O` (stereo not shown) [Compound 347], the minimal effective concentration in the assay on PC3 cells was 0.562 µM. For the same molecule, the IC50 on TANK-2 enzyme was 200 nM.
For the molecule `CCc1cc2ccc(C(C)(C#N)Cc3cc(OC)nc(OC)c3)cc2[nH]c1=O` (stereo not shown) [Compound 350], the minimal effective concentration in the assay with PC3 cells is 1 µM. In addition, the IC50 on TANK-2 enzyme was 126 nM.
`CCc1cc2ccc(C(C)(C#N)Cc3cc(Cl)nc(OC)c3)cc2[nH]c1=O` (stereo not shown) [Compound 351]: the minimal effective concentration in the assay on PC3 cells was 0.1 µM. In addition, the IC50 at TANK-2 enzyme was 158 nM.
The matching figures for `CCc1cc2ccc(C(C)(C#N)Cc3cc(N(C)C)nc(OC)n3)cc2[nH]c1=O` (stereo not shown) [Compound 354]: 1 µM and 79.4 nM.
For `CCc1cc2ccc(C(C)(C#N)Cc3cc(Cl)nc(C)n3)cc2[nH]c1=O` (stereo not shown) [Compound 365], the minimal effective concentration with PC3 cells is 0.316 µM. Moreover, the IC50 on TANK-2 enzyme is 79.4 nM.
For `CCc1cc2ccc(C(C)(C#N)CN3CCC(c4ccccc4)CC3)cc2[nH]c1=O` (stereo not shown) [Compound 375], in that order: 0.316 µM and 398 nM.
As to `CCc1cc2ccc(C(C)(C#N)CN3CCN(c4ccc(C#N)cn4)CC3)cc2[nH]c1=O` (stereo not shown) [Compound 377], the minimal effective concentration in the assay on PC3 cells is 1 µM. For the same molecule, the IC50 at TANK-2 enzyme was 50.1 nM.
Regarding `CCc1cc2ccc(C(C)(C#N)Cc3cc(Br)cc4c3OCC4)cc2[nH]c1=O` (stereo not shown) [Compound 378], the minimal effective concentration in the assay on PC3 cells was 0.316 µM. Also, the IC50 at TANK-2 enzyme was 251 nM.
For `Cc1cc2ccc([C@](C)(C#N)[C@H]3CCc4ccccc43)cc2[nH]c1=O` [Compound 387], in that order: 3.16 µM and 2510 nM.
As for `Cc1cc2ccc(C(C)(C#N)C3CCc4ccccc43)cc2[nH]c1=O` (stereo not shown) [Compound 392], the minimal effective concentration in the assay with PC3 cells is 0.316 µM. Also, the IC50 on TANK-2 enzyme is 1260 nM.
The matching figures for `Cc1cc2ccc(C(C)(C#N)C3CCCc4ccccc43)cc2[nH]c1=O` (stereo not shown) [Compound 404]: 0.562 µM and 2000 nM.

The record behind these values is US8778966B2, “Quinolinone derivatives as PARP and tank inhibitors” (Janssen Pharmaceutica, NV, priority 2007, dated 2014).
